Measured values reported in ChEMBL document CHEMBL3102801, “Synthesis and antiproliferative activity of new derivatives containing the polycyclic system 5,7:7,13-dimethanopyrazolo[3,4-b]pyrazolo[3',4':2,3]azepino[4,5-f]azocine” (Eur J Med Chem, 2014).
Values belong to the molecule of their own block, whether it stands above or below them.

Key:
Assay type in all cases: functional
SNB-19 = test: Growth inhibition of human SNB19 cells after 48 hrs by sulforhodamine B assay; details: SNB-19, 48 h
TK-10 = test: Growth inhibition of human TK10 cells after 48 hrs by sulforhodamine B assay; details: TK-10, 48 h
IGROV-1 = test: Growth inhibition of human IGROV1 cells after 48 hrs by sulforhodamine B assay; details: IGROV-1, 48 h
MDA-MB-231 = test: Growth inhibition of human MDA-MB-231 cells after 48 hrs by sulforhodamine B assay; details: MDA-MB-231, 48 h
PC-3 = test: Growth inhibition of human PC3 cells after 48 hrs by sulforhodamine B assay; details: PC-3, 48 h
[1] = Growth inhibition of human HCC2998 cells after 48 hrs by sulforhodamine B assay; details: HCC 2998, 48 h
SK-MEL-28 = test: Growth inhibition of human SK-MEL-28 cells after 48 hrs by sulforhodamine B assay; details: SK-MEL-28, 48 h
MCF7 = test: Growth inhibition of human MCF7 cells after 48 hrs by sulforhodamine B assay; details: MCF7, 48 h
A498 = test: Growth inhibition of human A498 cells after 48 hrs by sulforhodamine B assay; details: A498, 48 h
786-0 = test: Growth inhibition of human 786-0 cells after 48 hrs by sulforhodamine B assay; details: 786-0, 48 h
SF-268 = test: Growth inhibition of human SF268 cells after 48 hrs by sulforhodamine B assay; details: SF-268, 48 h
[2] = Growth inhibition of human RXF393 cells after 48 hrs by sulforhodamine B assay; details: RXF 393, 48 h
[3] = Growth inhibition of human OVCAR4 cells after 48 hrs by sulforhodamine B assay; details: OVCAR-4, 48 h
SK-MEL-2 = test: Growth inhibition of human SK-MEL-2 cells after 48 hrs by sulforhodamine B assay; details: SK-MEL-2, 48 h
[4] = Growth inhibition of human SF539 cells after 48 hrs by sulforhodamine B assay; details: SF-539, 48 h
T47D = test: Growth inhibition of human T47D cells after 48 hrs by sulforhodamine B assay
BT-549 = test: Growth inhibition of human BT549 cells after 48 hrs by sulforhodamine B assay; details: BT-549, 48 h
[5] = Growth inhibition of human OVCAR5 cells after 48 hrs by sulforhodamine B assay; details: OVCAR-5, 48 h
[6] = Growth inhibition of human Hs 578T cells after 48 hrs by sulforhodamine B assay
HOP-62 = test: Growth inhibition of human HOP62 cells after 48 hrs by sulforhodamine B assay; details: HOP-62, 48 h
Malme-3M = test: Growth inhibition of human MALME-3M cells after 48 hrs by sulforhodamine B assay
SN12C = test: Growth inhibition of human SN12C cells after 48 hrs by sulforhodamine B assay
[7] = Growth inhibition of human UO31 cells after 48 hrs by sulforhodamine B assay; details: UO-31, 48 h
NCI-H522 = test: Growth inhibition of human NCI-H522 cells after 48 hrs by sulforhodamine B assay; details: NCI-H522, 48 h
NCI-H23 = test: Growth inhibition of human NCI-H23 cells after 48 hrs by sulforhodamine B assay; details: NCI-H23, 48 h
[8] = Growth inhibition of human NCI-ADR-RES cells after 48 hrs by sulforhodamine B assay
NCI-H226 = test: Growth inhibition of human NCI-H226 cells after 48 hrs by sulforhodamine B assay; details: NCI-H226, 48 h
NCI-H322M = test: Growth inhibition of human NCI-H322M cells after 48 hrs by sulforhodamine B assay
[9] = Growth inhibition of human HOP92 cells after 48 hrs by sulforhodamine B assay; details: HOP-92, 48 h
SK-OV-3 = test: Growth inhibition of human SKOV3 cells after 48 hrs by sulforhodamine B assay; details: SK-OV-3, 48 h
MDA-MB-468 = test: Growth inhibition of human MDA-MB-468 cells after 48 hrs by sulforhodamine B assay; details: MDA-MB-468, 48 h
NCI-H460 = test: Growth inhibition of human NCI-H460 cells after 48 hrs by sulforhodamine B assay; details: NCI-H460, 48 h
[10] = Growth inhibition of human UACC257 cells after 48 hrs by sulforhodamine B assay; details: UACC-257, 48 h
DU-145 = test: Growth inhibition of human DU145 cells after 48 hrs by sulforhodamine B assay; details: DU-145, 48 h
HCT-116 = test: Growth inhibition of human HCT116 cells after 48 hrs by sulforhodamine B assay; details: HCT-116, 48 h
UACC-62 = test: Growth inhibition of human UACC62 cells after 48 hrs by sulforhodamine B assay; details: UACC-62, 48 h
OVCAR-3 = test: Growth inhibition of human OVCAR3 cells after 48 hrs by sulforhodamine B assay; details: OVCAR-3, 48 h
U-251 = test: Growth inhibition of human U251 cells after 48 hrs by sulforhodamine B assay; details: U-251, 48 h
A549 = test: Growth inhibition of human A549 cells after 48 hrs by sulforhodamine B assay; details: A549, 48 h
ACHN = test: Growth inhibition of human ACHN cells after 48 hrs by sulforhodamine B assay
OVCAR-8 = test: Growth inhibition of human OVCAR8 cells after 48 hrs by sulforhodamine B assay; details: OVCAR-8, 48 h
HT-29 = test: Growth inhibition of human HT-29 cells after 48 hrs by sulforhodamine B assay; details: HT-29, 48 h
MDA-MB-435 = test: Growth inhibition of human MDA-MB-435 cells after 48 hrs by sulforhodamine B assay; details: MDA-MB-435, 48 h
HCT-15 = test: Growth inhibition of human HCT15 cells after 48 hrs by sulforhodamine B assay; details: HCT-15, 48 h

- GI50 (MDA-MB-231): > 100 µM
- GI50 (PC-3): 591 nM
- GI50 (SK-MEL-28): 3140 nM
- GI50 (MCF7): 3.46 µM
- GI50 (786-0): > 100 µM
- GI50 (SK-MEL-2): > 100 µM
- GI50 (T47D): 2640 nM
- GI50 (BT-549): > 100 µM
- GI50 (NCI-H522): 3880 nM
- GI50 (NCI-H23): > 100 µM
- GI50 (NCI-H226): > 100 µM
- GI50 (NCI-H322M): > 100 µM
- GI50 (SK-OV-3): 24.1 µM
Compound: Cc1nn(-c2ccccc2)c2c1C(C)C1CC3(CC4(C)CC3C1(C)c1c(C)nn(-c3ccccc3)c1N4C)N2C (stereo not drawn)
- GI50 (SNB-19): > 100 µM
- GI50 (TK-10): > 100 µM
- GI50 (IGROV-1): > 100 µM
- GI50 [1]: > 100 µM
- GI50 (A498): > 100 µM
- GI50 (SF-268): > 100 µM
- GI50 [2]: 3410 nM
- GI50 [3]: 8.66 µM
- GI50 [4]: > 100 µM
- GI50 [5]: > 100 µM
- GI50 [6]: > 100 µM
- GI50 (HOP-62): 18.3 µM
- GI50 (Malme-3M): > 100 µM
- GI50 (SN12C): > 100 µM
- GI50 [7]: > 100 µM
- GI50 [8]: > 100 µM
- GI50 [9]: 792 nM

- GI50 (MDA-MB-468): 4.76 µM
- GI50 (MDA-MB-231): 6.35 µM
- GI50 (PC-3): 1710 nM
- GI50 (SK-MEL-28): 1520 nM
- GI50 (MCF7): 4.02 µM
- GI50 (786-0): 5.47 µM
- GI50 (NCI-H460): 3.69 µM
- GI50 (SK-MEL-2): 7.29 µM
- GI50 (T47D): 2440 nM
- GI50 (BT-549): 4.17 µM
- GI50 (DU-145): 23 µM
- GI50 (HCT-116): 2090 nM
- GI50 (OVCAR-3): 7.14 µM
- GI50 (U-251): 3.94 µM
- GI50 (A549): 3290 nM
- GI50 (NCI-H522): 891 nM
- GI50 (NCI-H23): 18.7 µM
- GI50 (NCI-H226): 5.34 µM
- GI50 (ACHN): 6.13 µM
- GI50 (NCI-H322M): 22.4 µM
- GI50 (OVCAR-8): 4.19 µM
- GI50 (HT-29): 3.39 µM
- GI50 (SK-OV-3): 2.53 µM
Compound: COc1ccc(-n2nc(C)c3c2N(C)C2(C)CC4C3(C)C3CC4(C2)N(C)c2c(c(C)nn2-c2ccc(OC)cc2)C3C)cc1 (stereo not drawn)
- GI50 (SNB-19): 4.45 µM
- GI50 (TK-10): 4.77 µM
- GI50 (IGROV-1): 19.5 µM
- GI50 [1]: 9.65 µM
- GI50 (A498): 3.95 µM
- GI50 (SF-268): 4.08 µM
- GI50 [2]: 2920 nM
- GI50 [3]: 5.95 µM
- GI50 [4]: 63.5 µM
- GI50 [10]: 2340 nM
- GI50 [5]: > 100 µM
- GI50 (UACC-62): 12.6 µM
- GI50 [6]: 4.27 µM
- GI50 (HOP-62): 3.1 µM
- GI50 (Malme-3M): 6.34 µM
- GI50 (SN12C): 8.07 µM
- GI50 [8]: 8.03 µM

- GI50 (MDA-MB-468): 2.9 µM
- GI50 (MDA-MB-231): 4.55 µM
- GI50 (PC-3): 979 nM
- GI50 (SK-MEL-28): 2260 nM
- GI50 (MCF7): 2.99 µM
- GI50 (786-0): 11.8 µM
- GI50 (NCI-H460): 3.35 µM
- GI50 (SK-MEL-2): 6.78 µM
- GI50 (T47D): 2130 nM
- GI50 (MDA-MB-435): 4.12 µM
- GI50 (BT-549): 5.55 µM
- GI50 (DU-145): 8.7 µM
- GI50 (HCT-15): 3.67 µM
- GI50 (HCT-116): 3720 nM
- GI50 (OVCAR-3): 4.58 µM
- GI50 (U-251): 4.44 µM
- GI50 (A549): 2370 nM
- GI50 (NCI-H522): 2120 nM
- GI50 (NCI-H23): 7.99 µM
- GI50 (NCI-H226): 15.3 µM
- GI50 (ACHN): 4.78 µM
- GI50 (NCI-H322M): 33.8 µM
- GI50 (OVCAR-8): 5.41 µM
- GI50 (HT-29): 3.59 µM
- GI50 (SK-OV-3): 4.64 µM
Compound: C=C1c2c(C)nn(-c3ccccc3)c2N(C)C23CC1C1(C)c4c(C)nn(-c5ccccc5)c4N(C)C(C)(CC12)C3 (stereo not drawn)
- GI50 (SNB-19): 11 µM
- GI50 (TK-10): 4.77 µM
- GI50 (IGROV-1): 11.9 µM
- GI50 [1]: 6.22 µM
- GI50 (A498): 4.28 µM
- GI50 (SF-268): 7.52 µM
- GI50 [2]: 2040 nM
- GI50 [3]: 4.49 µM
- GI50 [4]: 26.7 µM
- GI50 [10]: 2870 nM
- GI50 [5]: > 100 µM
- GI50 (UACC-62): 4.38 µM
- GI50 [6]: 5.67 µM
- GI50 (HOP-62): 7.15 µM
- GI50 (Malme-3M): 4.19 µM
- GI50 (SN12C): 9.92 µM
- GI50 [8]: 6.04 µM
- GI50 [9]: 549 nM
